Where “and” joins values, the source holds several entries; their conditions need not be identical. Identical values can stand only once.

For orientation: melting point means the temperature, or range, at which the solid turns liquid. The compound `CCC[C@H](NC(=O)[C@@H](O)C(C)(C)C)C(=O)Nc1ncc(-c2ccccc2COc2cccc(OC)c2OC)s1` [compound 23, (2S)—N-(5-{2-[(2,3-dimethoxyphenoxy)methyl]-phenyl}-1,3-thiazol-2-yl)-2-{[(2S)-2-hydroxy-3,3-dimethylbutanoyl]amino}pentanamide] gave a melting point of 99 °C. The result for `CCC[C@H](NC(=O)[C@@H](O)C(C)(C)C)C(=O)Nc1ncc(-c2ccccc2COCC)s1` [compound 15, (2S)—N-{5-[2-(ethoxymethyl)phenyl]-1,3-thiazol-2-yl}-2-{[(2S)-2-hydroxy-3,3-dimethylbutanoyl]amino}pentanamide] reads 148 °C; that for `CCC[C@H](NC(=O)[C@@H](O)C(C)(C)C)C(=O)Nc1ncc(-c2ccccc2COc2ccc(Cl)c(C)c2)s1` [compound 72, (2S)—N-(5-{2-[(4-chloro-3-methylphenoxy)methyl]phenyl}-1,3-thiazol-2-yl)-2-{[(2S)-2-hydroxy-3,3-dimethylbutanoyl]amino}pentanamide], 83.4 °C. On to `CCC[C@H](NC(=O)[C@@H](O)C(C)(C)C)C(=O)Nc1ncc(-c2ccccc2COc2cccc(C)c2)s1` [compound 68, (2S)-2-{[(2S)-2-hydroxy-3,3-dimethylbutanoyl]amino}-N-(5-{2-[(3-methylphenoxy)methyl]phenyl}-1,3-thiazol-2-yl)pentanamide], for which the melting point is 80.6 °C. On to `CCC[C@H](NC(=O)[C@@H](O)C(C)(C)C)C(=O)Nc1ncc(-c2ccccc2COc2c(C)cccc2C)s1` [compound 28, (2S)—N-(5-{2-[(2,6-dimethylphenoxy)methyl]phenyl}-1,3-thiazol-2-yl)-2-{[(2S)-2-hydroxy-3,3-dimethylbutanoyl]amino}pentanamide], for which the melting point amounted to 87 °C. Turning to `CCC[C@H](NC(=O)[C@@H](O)C(C)(C)C)C(=O)Nc1ncc(-c2ccccc2COc2ccccc2OC(F)(F)F)s1` [compound 24, (2S)-2-{[(2S)-2-hydroxy-3,3-dimethylbutanoyl]amino}-N-[5-(2-{[2-(trifluoromethoxy)phenoxy]methyl}phenyl)-1,3-thiazol-2-yl]pentanamide], the melting point came out at 66 °C. For `CCC[C@H](NC(=O)[C@@H](O)C(C)(C)C)C(=O)Nc1ncc(-c2ccccc2COc2ccccc2C#N)s1` [compound 69, (2S)—N-(5-{2-[(2-cyanophenoxy)methyl]phenyl}-1,3-thiazol-2-yl)-2-{[(2S)-2-hydroxy-3,3-dimethylbutanoyl]amino}pentanamide], the melting point was 99 °C. `CCC[C@H](NC(=O)[C@@H](O)CC(C)C)C(=O)Nc1ncc(-c2ccccc2COC2CCCCC2)s1` [compound 51, (2S)—N-((1S)-1-{[(5-{2-[(cyclohexyloxy)methyl]phenyl}-1,3-thiazol-2-yl)amino]carbonyl}butyl)-2-hydroxy-4-methylpentanamide] displayed a melting point of 158 °C. `CCC[C@H](NC(=O)[C@@H](O)C(C)(C)C)C(=O)Nc1ncc(-c2ccccc2COc2c(OC)cccc2OC)s1` [compound 31, (2S)—N-(5-{2-[(2,6-dimethoxyphenoxy)methyl]phenyl}-1,3-thiazol-2-yl)-2-{[(2S)-2-hydroxy-3,3-dimethylbutanoyl]amino}pentanamide] showed a melting point of 69.5 °C.

Regarding `CCC[C@H](NC(=O)[C@@H](O)C(C)(C)C)C(=O)Nc1ncc(-c2ccccc2COC(C)C)s1` [compound 11, (2S)-2-{[(2S)-2-hydroxy-3,3-dimethylbutanoyl]amino}-N-{5-[2-(isopropoxymethyl)phenyl]-1,3-thiazol-2-yl}pentanamide], the melting point amounted to 63 °C. `CCC[C@H](NC(=O)[C@@H](O)C(C)(C)C)C(=O)Nc1ncc(-c2ccccc2COc2ccccc2C)s1` [compound 36, (2S)-2-{[(2S)-2-hydroxy-3,3-dimethylbutanoyl]amino}-N-(5-{2-[(2-methylphenoxy)methyl]phenyl}-1,3-thiazol-2-yl}pentanamide] showed a melting point of 96.5 °C. `CCC[C@H](NC(=O)[C@@H](O)C(C)C)C(=O)Nc1ncc(-c2cc(C)ccc2COc2ccccc2)s1` [compound 60, (2S)-2-{[(2S)-2-hydroxy-3-methylbutanoyl]amino}-N-{5-[5-methyl-2-(phenoxymethyl)phenyl]-1,3-thiazol-2-yl}pentanamide]: the melting point is 125.5 °C.

As for `CCC[C@H](NC(=O)[C@@H](O)C(C)(C)C)C(=O)Nc1ncc(-c2ccccc2COc2cc(C)ccc2Cl)s1` [compound 67, (2S)—N-(5-{2-[(2-chloro-5-methylphenoxy)methyl]phenyl}-1,3-thiazol-2-yl)-2-{[(2S)-2-hydroxy-3,3-dimethylbutanoyl]amino}pentanamide], the melting point amounted to 82 °C.

As for `CCC[C@H](NC(=O)[C@@H](O)C(C)C)C(=O)Nc1ncc(-c2ccccc2COc2ccccc2)s1` [compound 37, (2S)-2-{[(2S)-2-hydroxy-3-methylbutanoyl]amino}-N-{5-[2-(phenoxymethyl)phenyl]-1,3-thiazol-2-yl}pentanamide], the melting point was found to be 141 °C.

`CCC[C@H](NC(=O)[C@@H](O)C(C)(C)C)C(=O)Nc1ncc(-c2cc(C)ccc2COc2ccccc2)s1` [compound 64, (2S)-2-{[(2S)-2-hydroxy-3,3-dimethylbutanoyl]amino}-N-{5-[5-methyl-2-(phenoxymethyl)phenyl]-1,3-thiazol-2-yl}pentanamide] gave a melting point of 170 °C. Regarding `CCC[C@H](NC(=O)[C@@H](O)C(C)(C)C)C(=O)Nc1ncc(-c2ccc(OC)cc2COC(C)C)s1` [compound 44, (2S)-2-{[(2S)-2-hydroxy-3,3-dimethylbutanoyl]amino}-N-{5-[2-(isopropoxymethyl)-4-methoxyphenyl]-1,3-thiazol-2-yl}pentanamide], the melting point was 79 °C. To `CCC[C@H](NC(=O)[C@@H](O)C(C)C)C(=O)Nc1ncc(-c2ccc(OCC)cc2COc2ccccc2)s1` [compound 53, (2S)—N-{5-[4-ethoxy-2-(phenoxymethyl)phenyl]-1,3-thiazol-2-yl}-2-{[(2S)-2-hydroxy-3-methylbutanoyl]amino}pentanamide] belongs 107.8 °C.

On to `CCC[C@H](NC(=O)[C@@H](O)C(C)(C)C)C(=O)Nc1ncc(-c2ccccc2COc2ccccc2)s1` [Compound No. 9, (2S)-2-{[(2S)-2-hydroxy-3,3-dimethylbutanoyl]amino}-N-{5-[2-(phenoxymethyl)phenyl]-1,3-thiazol-2-yl}pentanamide], for which the melting point was found to be 84 °C. The result for `CCC[C@H](NC(=O)C(=O)C(C)CC)C(=O)Nc1ncc(-c2ccccc2COC(C)C)s1` (stereo partly drawn) [compound 14, N-{(1S)-1-[({5-[2-(isopropoxymethyl)phenyl]-1,3-thiazol-2-yl}amino)carbonyl]butyl}-3-methyl-2-oxopentanamide] reads 112 °C; that for `CCC[C@H](NC(=O)[C@@H](O)C(C)(C)C)C(=O)Nc1ncc(-c2ccccc2COc2cccc(OC(F)(F)F)c2)s1` [compound 17, (2S)-2-{[(2S)-2-hydroxy-3,3-dimethylbutanoyl]amino}-N-[5-(2-{[3-(trifluoromethoxy)phenoxy]methyl}phenyl)-1,3-thiazol-2-yl]pentanamide], 114 °C; that for `CCC[C@H](NC(=O)C(O)C(C)(C)C)C(=O)Nc1ncc(-c2ccccc2COc2ccccc2OCC)s1` (stereo partly drawn) [compound 39, (2S)—N-(5-{2-[(2-ethoxyphenoxy)methyl]phenyl}-1,3-thiazol-2-yl)-2-[(2-hydroxy-3,3-dimethylbutanoyl)amino]pentanamide], 88 °C.

The compound `CCC[C@H](NC(=O)[C@@H](O)C(C)C)C(=O)Nc1ncc(-c2ccc(OC)cc2COc2ccccc2)s1` [compound 49, (2S)-2-{[(2S)-2-hydroxy-3-methylbutanoyl]amino}-N-{5-[4-methoxy-2-(phenoxymethyl)phenyl]-1,3-thiazol-2-yl}pentanamide] had a melting point of 159.5 °C.

With `CCC[C@H](NC(=O)[C@@H](O)C(C)(C)C)C(=O)Nc1ncc(-c2ccccc2COc2cccc(C)c2C)s1` [compound 26, (2S)—N-(5-{2-[(2,3-dimethylphenoxy)methyl]phenyl}-1,3-thiazol-2-yl)-2-{[(2S)-2-hydroxy-3,3-dimethylbutanoyl]amino}pentanamide], the melting point is 88 °C. The compound `CCC[C@H](NC(=O)[C@@H](O)C(C)(C)C)C(=O)Nc1ncc(-c2ccccc2COc2ccc(OC)c(OC)c2)s1` [compound 30, (2S)—N-(5-{2-[(3,4-dimethoxyphenoxy)methyl]phenyl}-1,3-thiazol-2-yl)-2-{[(2S)-2-hydroxy-3,3-dimethylbutanoyl]amino}pentanamide] had a melting point of 81.5 °C. As to `CCC[C@H](NC(=O)[C@@H](O)C(C)C)C(=O)Nc1ncc(-c2ccccc2COc2cccc(F)c2)s1` [compound 63, (2S)—N-(5-{2-[(3-fluorophenoxy)methyl]phenyl}-1,3-thiazol-2-yl)-2-{[(2S)-2-hydroxy-3-methylbutanoyl]amino}pentanamide], the melting point was found to be 130.7 °C. `CCC[C@H](NC(=O)C(O)C(C)(C)C)C(=O)Nc1ncc(-c2ccccc2COc2c(Cl)cccc2Cl)s1` (stereo partly drawn) [compound 41, (2S)—N-(5-{2-[(2,6-dichlorophenoxy)methyl]phenyl}-1,3-thiazol-2-yl)-2-[(2-hydroxy-3,3-dimethylbutanoyl)amino]pentanamide] registered a melting point of 126 °C. In turn, `CCC[C@@H](NC(=O)[C@@H](O)C(C)(C)C)C(=O)Nc1ncc(-c2ccccc2COc2ccccc2)s1` [compound 35, (2R)-2-{[(2S)-2-hydroxy-3,3-dimethylbutanoyl]amino}-N-{5-[2-(phenoxymethyl)phenyl]-1,3-thiazol-2-yl}pentanamide] displayed a melting point of 78.5 °C. The result for `CCC[C@H](NC(=O)[C@H](O)C(CC)CC)C(=O)Nc1ncc(-c2ccccc2COc2ccccc2)s1` (racemic) [Compound No. 42, (2R)-3-ethyl-2-hydroxy-N-{(1S)-1-[({5-[2-(phenoxymethyl)phenyl]-1,3-thiazol-2-yl}amino)carbonyl]butyl}pentanamide] reads 67.4 °C and 67.5 °C; that for `CCC[C@H](NC(=O)[C@@H](O)C(C)(C)C)C(=O)Nc1ncc(-c2ccccc2COc2ccccc2F)s1` [compound 19, (2S)—N-(5-{2-[(2-fluorophenoxy)methyl]phenyl}-1,3-thiazol-2-yl)-2-{[(2S)-2-hydroxy-3,3-dimethylbutanoyl]amino}pentanamide], 92 °C.
